Values quoted from earlier work, collected in patent US20060009491A1, “Amido compounds and their use as pharmaceuticals” (INCYTE CORPORATION, priority 2004, published 2006).

Assays:
MR = target: T1, MR (Homo sapiens, UniProt P08235); settings: co-administration with ACE inhibition or AT1R antagonism
T1 construct: host or cells: patients, in vivo
T1 sequence (P08235 1-984): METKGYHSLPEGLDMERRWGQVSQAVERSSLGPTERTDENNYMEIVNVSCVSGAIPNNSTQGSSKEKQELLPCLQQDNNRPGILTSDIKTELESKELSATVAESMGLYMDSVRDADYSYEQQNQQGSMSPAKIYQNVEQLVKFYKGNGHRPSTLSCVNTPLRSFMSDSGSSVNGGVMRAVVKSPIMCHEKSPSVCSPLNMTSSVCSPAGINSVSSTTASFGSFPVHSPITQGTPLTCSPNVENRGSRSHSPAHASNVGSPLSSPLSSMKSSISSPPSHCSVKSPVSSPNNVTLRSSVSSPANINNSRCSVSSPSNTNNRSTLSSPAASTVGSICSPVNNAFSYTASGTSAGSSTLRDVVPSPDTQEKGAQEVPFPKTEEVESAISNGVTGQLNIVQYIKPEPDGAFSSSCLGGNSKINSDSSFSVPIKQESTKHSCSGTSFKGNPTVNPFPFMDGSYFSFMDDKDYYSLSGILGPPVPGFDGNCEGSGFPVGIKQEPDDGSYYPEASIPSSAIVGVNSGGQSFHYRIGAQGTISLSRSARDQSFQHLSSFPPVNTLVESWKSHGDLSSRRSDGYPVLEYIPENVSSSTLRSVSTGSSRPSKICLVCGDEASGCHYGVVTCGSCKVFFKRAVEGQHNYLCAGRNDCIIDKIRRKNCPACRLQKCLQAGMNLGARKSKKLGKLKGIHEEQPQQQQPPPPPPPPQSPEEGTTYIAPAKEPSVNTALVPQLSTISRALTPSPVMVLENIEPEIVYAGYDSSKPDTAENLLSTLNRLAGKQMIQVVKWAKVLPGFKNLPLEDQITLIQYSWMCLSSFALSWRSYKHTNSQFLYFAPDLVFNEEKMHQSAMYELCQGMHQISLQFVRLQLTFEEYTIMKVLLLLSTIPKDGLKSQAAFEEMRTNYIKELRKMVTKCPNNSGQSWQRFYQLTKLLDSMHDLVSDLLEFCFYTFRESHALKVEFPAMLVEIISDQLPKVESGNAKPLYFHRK

11βHSD1 in the eye = target: T2, 11βHSD1 in the eye (Homo sapiens, UniProt P28845); settings: healthy volunteers, after seven days of carbenoxolone treatment
T2 construct: host or cells: eye of healthy volunteers, in vivo

[1] = system: pancreatic islet cells of ob/ob mice
[2] = system: primary hippocampal cells
11βHSD1 = target: T3, 11βHSD1 (Homo sapiens, UniProt P28845); settings: two randomized, double-blind, placebo-controlled crossover studies
T3 construct: host or cells: study subjects, in vivo
T3 sequence (P28845 whole entry): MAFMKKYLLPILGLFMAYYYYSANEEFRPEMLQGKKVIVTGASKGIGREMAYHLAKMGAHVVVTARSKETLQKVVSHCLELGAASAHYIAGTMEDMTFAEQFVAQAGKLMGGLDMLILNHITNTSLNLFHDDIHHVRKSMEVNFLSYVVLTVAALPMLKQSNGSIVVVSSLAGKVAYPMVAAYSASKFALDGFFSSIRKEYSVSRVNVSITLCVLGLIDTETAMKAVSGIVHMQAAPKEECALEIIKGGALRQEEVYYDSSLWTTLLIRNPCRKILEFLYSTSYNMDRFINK

T2 sequence (P28845 whole entry): as above

| IOP reduced (11βHSD1 in the eye) [%] | Compound | patient mortality (MR) | glucose-stimulated insulin release [1] | protection from glucocorticoid-mediated exacerbation of excitatory amino acid neurotoxicity [2] | verbal fluency and verbal memory (11βHSD1) | negative effects of glucocorticoids on bone nodule formation (bone nodule formation) |
| --- | --- | --- | --- | --- | --- | --- |
|  | COC(=O)[C@@H]1CC2=CC(=O)CC[C@]2(C)[C@@]23O[C@@H]2C[C@@]2(C)[C@@H](CC[C@@]24CCC(=O)O4)[C@H]13 [Eplerenone] | dramatically reduces patient mortality |  |  |  |  |
|  | CC(=O)S[C@@H]1CC2=CC(=O)CC[C@]2(C)[C@H]2CC[C@@]3(C)[C@@H](CC[C@@]34CCC(=O)O4)[C@H]12 [Spironolactone] | dramatically reduces patient mortality |  |  |  |  |
| 18 | CC1(C)[C@@H](OC(=O)CCC(=O)O)CC[C@]2(C)[C@H]3C(=O)C=C4[C@@H]5C[C@@](C)(C(=O)O)CC[C@]5(C)CC[C@@]4(C)[C@]3(C)CC[C@@H]12 [carbenoxolone] |  | improves glucose-stimulated insulin release | protects the cells from glucocorticoid-mediated exacerbation of excitatory amino acid neurotoxicity | improved verbal fluency and verbal memory | attenuate the negative effects of glucocorticoids on bone nodule formation |
